Assay results taken from ChEMBL document CHEMBL5335843, “Application of tobramycin benzyl ether as an antibiotic adjuvant capable of sensitizing multidrug-resistant Gram-negative bacteria to rifampicin” (2024).

Legend:
Format in all cases: functional
Pseudomonas aeruginosa [1] = experiment: Antibiotic adjuvant activity against multi-drug resistant Pseudomonas aeruginosa clinical isolate PA259 assessed as fold potentiation incubated for 18 hrs in presence of doxycycline by two fold broth microdilution checkerboard assay
Staphylococcus aureus = experiment: Antibiotic adjuvant activity against methicilin-resistant Staphylococcus aureus assessed as fold potentiation incubated for 18 hrs in presence of rifampicin by two fold broth microdilution checkerboard assay
Pseudomonas aeruginosa [2] = experiment: Antibiotic adjuvant activity against multi-drug resistant Pseudomonas aeruginosa clinical isolate 114228 assessed as rifampicin MIC incubated for 18 hrs in presence of Rifampicin by two fold broth microdilution checkerboard assay
Escherichia coli [3] = experiment: Antibiotic adjuvant activity against multi-drug resistant Escherichia coli clinical isolate EC107115 assessed as inhibition of bacterial growth incubated for 18 hrs in presence of doxycycline by two fold broth microdilution checkerboard assay
Pseudomonas aeruginosa [4] = experiment: Antibiotic adjuvant activity against multi-drug resistant Pseudomonas aeruginosa clinical isolate PA101243 assessed as inhibition of bacterial growth incubated for 18 hrs in presence of doxycycline by two fold broth microdilution checkerboard assay
Acinetobacter baumannii [5] = experiment: Antibiotic adjuvant activity against multi-drug resistant Acinetobacter baumannii clinical isolate AB031 assessed as fractional inhibitory concentration index incubated for 18 hrs in presence of Rifampicin by two fold broth microdilution checkerboard assay
Acinetobacter baumannii [6] = experiment: Antibacterial activity against multi-drug resistant Acinetobacter baumannii clinical isolate 110193 assessed as inhibition of bacterial growth incubated for 18 hrs by two fold broth microdilution assay
Escherichia coli [7] = experiment: Antibiotic adjuvant activity against multi-drug resistant Escherichia coli clinical isolate 94474 assessed as fractional inhibitory concentration index incubated for 18 hrs in presence of Rifampicin by two fold broth microdilution checkerboard assay
Escherichia coli [8] = experiment: Antibiotic adjuvant activity against Escherichia coli ATCC 25922 assessed as novobiocin MIC incubated for 18 hrs in presence of novobiocin by two fold broth microdilution checkerboard assay
Acinetobacter baumannii [9] = experiment: Antibiotic adjuvant activity against multi-drug resistant Acinetobacter baumannii clinical isolate AB031 assessed as rifampicin MIC incubated for 18 hrs in presence of Rifampicin by two fold broth microdilution checkerboard assay
Pseudomonas aeruginosa [10] = experiment: Antibiotic adjuvant activity against multi-drug resistant Pseudomonas aeruginosa clinical isolate PA259 assessed as fold potentiation incubated for 18 hrs in presence of minocycline by two fold broth microdilution checkerboard assay
Escherichia coli [11] = experiment: Antibiotic adjuvant activity against Escherichia coli ATCC 25922 assessed as fold potentiation incubated for 18 hrs in presence of Rifampicin by two fold broth microdilution checkerboard assay
Pseudomonas aeruginosa [12] = experiment: Antibiotic adjuvant activity against multi-drug resistant Pseudomonas aeruginosa clinical isolate PA264 assessed as fractional inhibitory concentration index incubated for 18 hrs in presence of doxycycline by two fold broth microdilution checkerboard assay
Escherichia coli [13] = experiment: Antibiotic adjuvant activity against Escherichia coli ATCC 25922 assessed as rifampicin MIC incubated for 18 hrs in presence of Rifampicin by two fold broth microdilution checkerboard assay
Acinetobacter baumannii [14] = experiment: Antibiotic adjuvant activity against multi-drug resistant Acinetobacter baumannii clinical isolate LAC-4 assessed as inhibition of bacterial growth incubated for 18 hrs in presence of Rifampicin by two fold broth microdilution checkerboard assay
Pseudomonas aeruginosa [15] = experiment: Antibiotic adjuvant activity against multi-drug resistant Pseudomonas aeruginosa clinical isolate PA262 assessed as doxycycline MIC incubated for 18 hrs in presence of doxycycline by two fold broth microdilution checkerboard assay
Pseudomonas aeruginosa [16] = experiment: Antibiotic adjuvant activity against multi-drug resistant Pseudomonas aeruginosa clinical isolate PA262 assessed as inhibition of bacterial growth incubated for 18 hrs in presence of minocycline by two fold broth microdilution checkerboard assay
Escherichia coli [17] = experiment: Antibiotic adjuvant activity against multi-drug resistant Escherichia coli clinical isolate EC107115 assessed as doxycycline MIC incubated for 18 hrs in presence of doxycycline by two fold broth microdilution checkerboard assay
Acinetobacter baumannii [18] = experiment: Antibiotic adjuvant activity against Acinetobacter baumannii ATCC 17978 assessed as fold potentiation incubated for 18 hrs in presence of rifampicin and CAMHB Na+ media by two fold broth microdilution checkerboard assay
Pseudomonas aeruginosa [19] = experiment: Antibiotic adjuvant activity against Pseudomonas aeruginosa PAO1 assessed as fold potentiation incubated for 18 hrs in presence of minocycline by two fold broth microdilution checkerboard assay
Escherichia coli [20] = experiment: Antibiotic adjuvant activity against multi-drug resistant Escherichia coli clinical isolate EC94474 assessed as minocycline MIC incubated for 18 hrs in presence of minocycline by two fold broth microdilution checkerboard assay
Pseudomonas aeruginosa [21] = experiment: Antibiotic adjuvant activity against multi-drug resistant Pseudomonas aeruginosa clinical isolate PA259 assessed as inhibition of bacterial growth incubated for 18 hrs in presence of Rifampicin by two fold broth microdilution checkerboard assay
Enterococcus faecium = experiment: Antibiotic adjuvant activity against Enterococcus faecium 128149 assessed as inhibition of bacterial growth incubated for 18 hrs in presence of rifampicin by two fold broth microdilution checkerboard assay
Escherichia coli [22] = experiment: Antibiotic adjuvant activity against multi-drug resistant Escherichia coli clinical isolate EC94474 assessed as fold potentiation incubated for 18 hrs in presence of minocycline by two fold broth microdilution checkerboard assay
Escherichia coli [23] = experiment: Antibiotic adjuvant activity against multi-drug resistant Escherichia coli clinical isolate EC107115 assessed as fractional inhibitory concentration index incubated for 18 hrs in presence of doxycycline by two fold broth microdilution checkerboard assay
Pseudomonas aeruginosa [24] = experiment: Antibiotic adjuvant activity against multi-drug resistant Pseudomonas aeruginosa clinical isolate PA101243 assessed as minocycline MIC incubated for 18 hrs in presence of minocycline by two fold broth microdilution checkerboard assay
Acinetobacter baumannii [25] = experiment: Antibiotic adjuvant activity against multi-drug resistant Acinetobacter baumannii clinical isolate AB027 assessed as fractional inhibitory concentration index incubated for 18 hrs in presence of Rifampicin by two fold broth microdilution checkerboard assay
Pseudomonas aeruginosa [26] = experiment: Antibiotic adjuvant activity against multi-drug resistant Pseudomonas aeruginosa clinical isolate PA264 assessed as fold potentiation incubated for 18 hrs in presence of doxycycline by two fold broth microdilution checkerboard assay

**Q.** What does the source list for `Cl.NC[C@H]1O[C@H](O[C@H]2[C@H](OCc3ccccc3)[C@@H](O[C@H]3O[C@H](COCc4ccccc4)[C@@H](OCc4ccccc4)[C@H](N)[C@H]3OCc3ccccc3)[C@H](N)C[C@@H]2N)[C@H](N)C[C@@H]1OCc1ccccc1`?
**A.** fold change (FC) (Pseudomonas aeruginosa [1]): 1; fold change (FC) (Staphylococcus aureus): 1; MIC (Pseudomonas aeruginosa [2]): 16 µg/mL; MIC (Escherichia coli [3]): 8 µg/mL; MIC (Pseudomonas aeruginosa [4]): 8 µg/mL; fractional inhibitory concentration index (FICI) (Acinetobacter baumannii [5]): 0.251; MIC (Acinetobacter baumannii [6]): 64 µg/mL; fractional inhibitory concentration index (FICI) (Escherichia coli [7]): 0.129; MIC (Escherichia coli [8]): 0.125 µg/mL; MIC (Acinetobacter baumannii [9]): 0.002 µg/mL; fold change (FC) (Pseudomonas aeruginosa [10]): 1; fold change (FC) (Escherichia coli [11]): 8; fractional inhibitory concentration index (FICI) (Pseudomonas aeruginosa [12]): 1.063; MIC (Escherichia coli [13]): 0.008 µg/mL; MIC (Acinetobacter baumannii [14]): 4 µg/mL; MIC (Pseudomonas aeruginosa [15]): 512 µg/mL; MIC (Pseudomonas aeruginosa [16]): 8 µg/mL; MIC (Escherichia coli [17]): 32 µg/mL; fold change (FC) (Acinetobacter baumannii [18]): 256; fold change (FC) (Pseudomonas aeruginosa [19]): 64; MIC (Escherichia coli [20]): 1 µg/mL; MIC (Pseudomonas aeruginosa [21]): 8 µg/mL; MIC (Enterococcus faecium): 8 µg/mL; fold change (FC) (Escherichia coli [22]): 64; fractional inhibitory concentration index (FICI) (Escherichia coli [23]): 0.313; MIC (Pseudomonas aeruginosa [24]): 64 µg/mL; fractional inhibitory concentration index (FICI) (Acinetobacter baumannii [25]): 0.125; fold change (FC) (Pseudomonas aeruginosa [26]): 1
